Source: patent publication US20130072714A1, “BIOBASED COMPOSITIONS OF DIAMMONIUM SUCCINATE, MONOAMMONIUM SUCCINATE AND/OR SUCCINIC ACID AND DERIVATIVES THEREOF” (BioAmber International S.à.r.l., priority 2011, published 2013)
“Also recorded” adds a separate entry of the source.

Assay: Heated color test: SA plus 1,4-butanediol with trace glucose and/or alanine, 180° C., visual inspection
Format: physicochemical
Conditions: 1.0 gram 1,4-butanediol plus 0.5 gram SA, 2 hours
Description: Glass vials were charged with 1,4-butanediol, pure SA, and trace levels of either glucose, alanine, or both. The vials were heated at 180° C. for 2 hours and any color changes observed by visual inspection. [table]

color change on heating, single impurity (impurity 10 ppm)	color change on heating, single impurity (impurity 100 ppm)	color change on heating, single impurity (impurity 1000 ppm)	color change on heating, two impurities (glucose 5 ppm, alanine 5 ppm)	color change on heating, two impurities (glucose 5 ppm, alanine 50 ppm)	color change on heating, two impurities (glucose 5 ppm, alanine 500 ppm)	color change on heating, two impurities (glucose 50 ppm, alanine 5 ppm)	color change on heating, two impurities (glucose 50 ppm, alanine 50 ppm)	color change on heating, two impurities (glucose 50 ppm, alanine 500 ppm)	color change on heating, two impurities (glucose 500 ppm, alanine 5 ppm)	color change on heating, two impurities (glucose 500 ppm, alanine 50 ppm)	color change on heating, two impurities (glucose 500 ppm, alanine 500 ppm)	Structure (SMILES)
No color	No color	Slight yellow	–	–	–	–	–	–	–	–	–	C[C@H](N)C(=O)O [Alanine, alanine]
–	–	–	No color	yellow color; also recorded: Slight	Slight	No color	Slight	Light	No color	Slight	Light	O=C(O)CCC(=O)O [SA, succinic acid]
